2 molecules from US20100075993A1, “SMALL MOLECULE INHIBITORS AGAINST WEST NILE VIRUS REPLICATION” (DREXEL UNIVERSITY, priority 2005, published 2010) can be followed below.

A value given as a limit tells only on which side of the number the result lay.

The test system of series [1] is BHK 26.5 replicon cells. The series can be described thus: MTT toxicity assay on BHK 26.5 replicon cells. The class given is cell-based. The source says:
The HTS strategy follows the flowchart outlined in FIG. 2. 35,000 compounds were screened from a chemical library described below, using a cutoff of 50% reduction in luminescence readout as the criteria for further study. Upon completion of the screen, approximately 1100 compounds were selected, making the hit rate of 3%. This is considerably higher than expected, implying many false positive and/or cytotoxic compounds. Nevertheless, the compounds were picked out from the “daughter” plates and re-checked at a single 10 μM concentration. In addition, a duplicate 96 well plates were also plated and the toxicity of the compounds was determined in an MTT assay. Upon completion of these assays, most compounds were disqualified as either false positives or being toxicity to cells. As a result, only a small number of compounds were further analyzed directly from the “mother” plate stock. After IC50 determination and secondary assay to rule out luciferase inhibitors, 23 “hits” were identified.
(§1) Replicon-harboring cells were plated 96-well plates at 10,000 cells per well in MEM plus 3% FBS. 24 hours after plating, compounds were added to the wells by a Robotic liquid handler (Biomek NX) to a final concentration of 10 μM and 1% DMSO. For each 96 well plate, A1 to A8 were left open, H1 to H4 contained 1% DMSO, H5-H8 contained Mycophenolic acid (Sigma-Aldrich, St. Louis, Mo.), which was included as positive controls. After 24 hours of treatment, the media were removed and the luciferase activity expressed in the replicon cells was quantified. When cyto-toxicity was measured, duplicate 96 well plates were plated with BHK 26.5 replicon cells. One plate was used for luciferase assay and one plate was used for measuring toxicity using MTT assay.
(§2) Compound toxicity was determined by MTT assay. For the MTT assay, the cell medium was removed and the monolayers were incubated with 100 μl/well of 0.5 mg/ml MTT for 6 h at 37° C. The MTT solution was then aspirated and 100 μl/well of the 10% SDS (in 0.01N HCl) was added, followed by spectrophotometric quantitation (570 nm) of the insoluble MIT reaction product.
(Tetrazolium dyes change colour on reduction, which living cells bring about.)

The nature of series [2]: toxicity (MTT, CC50) in BHK cells parallel to WNV infection assay. The series is classed as cell-based. As to conditions: hamster; highest concentration used 40 μM. Here is the method:
(§3) Several of these original compounds selected from the WNV replicon based screen were evaluated in an antiviral assay against WNV live virus. […] Modifications of this compound would be further investigated
(§4) The toxicity of 101-G7 was also measured by MTT assay and CC50 was calculated. 40 μM is highest concentration used.
as §2

Series [3] deals with BHK cells. The description is as above. The class given is cell-based. Conditions: MTT assay, 40 μM highest concentration used; read-out: Tox CC50. As for the experimental part: as §3, §4, §2
Series [4] deals with WNV replicon. The series can be described thus: WNV replicon luciferase assay in BHK 26.5 cells (HTS, re-test, IC50). The series is classed as cell-based, West Nile virus. Here is the method:
Ten micromolar concentrations of a selected compound were incubated with BHK 26.5 cells expressing luciferase whose activity is dependent upon WNV replicon replication (FIG. 1A). Primary “hits” were defined by the ability to reduce the amount of luciferase enzyme activity by more than 50%, compared to controls.
To quantify and rank the activity of the 23 remaining compound “hits”, a serial dilution of each compound was incubated with WNV replicon cells to determine the concentration that inhibits 50% of the luciferase readout (IC50s). […] A number of compounds had significant effect only at the highest, 10 μM concentration. However, several compounds had IC50s between 2 and 5 (Table 3), which is very reasonable for primary HTS hits from a compound library. Only a few compounds could cause 90% inhibition in the replicon cells at the concentrations tested.
as §1
Luciferase assay was performed by using the STEADY GLO reagent (Promega Corp. Madison, Wis.) according to the manufacturer's recommendation with slight modifications. Briefly, the culture media from the 96 wells were removed by dumping on paper towels.
100 μl of a 1:1 mixture of luciferase regent and culture media were added to the plate. After 5-minute incubation, the luminescence was read on a TOPCOUNT (PerkinElmer, Wellesley, Mass.).
In general terms: A replicon is a self-replicating genome or part of one, used to study replication in cells.

The test system of series [5] is WNV. Put plainly: WNV yield reduction assay (live virus) on BHK cells. The class given is cell-based, West Nile virus. Here is the method: The antiviral assay for the 309-F6 compounds was conducted on BHK cells. The virus produced in the presence of 1% DMSO or various concentrations of compounds was tittered on Vero cells. The amount of virus relative to the 1% DMSO control was plotted on the y-axis; the concentration of the compound 309F6 is shown in μM on the x-axis. Data from two independently treated wells (Test 1 and Test 2) are shown.
To measure activity against live WNV, BHK cells were plated in 96-well plates at a concentration of 12,000 cells/well. One day later the cells were infected with WNV for 1 h at an MOI of 0.05. The cells were then washed once and re-fed with fresh DMEM containing dilutions of the test compound. Plates were then incubated at 37° C. for 48 h, the supernatant collected and the WNV produced titered. For virus titration, Vero cells were plated in 96-well plates at 8000 cells/well and incubated overnight. The Vero cell monolayer were then infected for 1 h with various dilutions of the WNV supernatant, overlaid with media containing 0.6% tragacanth (ICN, CA) and incubated at 37° C. for 48 h. The culture media was then aspirated; the plate was rinsed, air-dried, and fixed with 50 μl/well acetone/methanol (50:50). Viral foci were detected for enumeration by immunostaining as described previously (15).

The subject of series [6] is WNV RNA. The series can be described thus: Northern blot of WNV RNA in compound treated replicon cells. Conditions: 48-hour treatment, compounds 10 μM, MPA 2.5%. The class given is cell-based, West Nile virus. Here is the method: FIG. 6 is a picture of a Northern blot gel of compound treated WNV replicon cells. 4×10^4 cells were seeded in 24 well plates. After 24 hours, the cells were treated with DMSO (lanes 2, 3) or the non-specific inhibitors, MPA (lane 1) or the compounds […] (lane 4), 18-B3 (lane 5) or 52-F2 (lane 6). After 48 hours, total RNA were isolated, separated on denaturing agrose gels and transferred to nylon membrane. Total RNA from a non-replicon cell (Huh-7 cell) was loaded in lane 7 as negative control. The membrane was probed with [^32P]-dCTP-labeled WNV NS5 and human beta-actin. The signal was quantified using a BioRad phosphoimager and WNV RNA level was calculated using beta-actin as a reference.
To confirm that the compounds can indeed inhibit WNV RNA replication, the WNV RNA level in the replicon cells treated with compounds by Northern blot analysis. Several hit compounds, 18-B3, 275-F9, 275-D9, 52-F2 and MPA were selected to treat the BHK 26.5 cells at 10 μM. […] The “hit” compounds 18-B3 and 275-F9 reduced WNV RNA by 1.5 and 2 fold, respectively (FIG. 6, lanes 4, 5). 18-B3 is one of the nine compounds that have similar structures while 275-F9 is one from another class of four compounds (Table 3).
Total cellular RNA was extracted by using the RNEASY kit (Qiagen NV, Netherlands). Northern blot analysis was done according to the protocol of Gu et al. 2002 (8). Briefly, 5 μg total RNA was electrophoresed through a 1.0% agarose gel containing 2.2M formaldehyde, transferred to a nylon membrane and immobilized by UV cross-linking (Stratagene, La Jolla, Calif.). After pre-hybridization in 5 ml of QuickHyb (Amersham, Piscataway, N.J. GE Healthcare, Giles, UK), [2P] dCTP-labeled probe made by random primer labeling of a 2.7 kb NS5 DNA fragment and a human beta-actin DNA at 65° C. The membrane was washed twice in 2×SSC/0.1% SDS for 10 min at room temperature and twice in 0.1×SSC/0.1% SDS for 15 min at 68° C. Membranes were exposed to Molecular Imager FX phosphoimager (BioRad, Hercules, Calif.) and the radiographic signals were collected and quantitated.

Series [7] relates to WNV NS3 protein. Put plainly: Western blot of WNV protein in compound treated replicon cells. As to conditions: 48-hour treatment, up to 10 uM; MPA 2.5 ug/ml. The class given is cell-based, West Nile virus. Here is the method:
Mycophenolic acid (MPA) was used as positive control in the experiment. 4×10^4 cells were seeded in 24 well plates 24 hours before the various concentrations of compounds were added. After 48 hours of drug treatment, SDS-Sample buffer were added to the wells to lyse the cells. The protein samples were separated on SDS-PAGE and transferred to PVDF membrane. Viral protein was detected by probing with a monoclonal antibody against WNV. The same membrane was stripped and probed for beta-actin with the signals shown at the bottom of the blot.
Although it is reassuring that multiple tests have yielded similar positive results, the ability of the compounds to inhibit WNV replication was further assessed in secondary assays. In the western blot analysis shown in FIG. 5, total cell proteins were prepared from WNV replicon cells treated with the hit compounds and the viral protein NS3 was detected with a monoclonal […] against West Nile virus (15). The same blots were stripped and probed for beta-actin to show equal loading. […] When compared with the IC50 determined for these compounds in the luciferase assay, there was a good correlation between the luciferase reduction and the viral protein reduction.
Total cell lysates from replicon cells were harvested from replicon cells in 1×SDS sample buffer. The lysates were heated at 70° C. for 10 min in the presence of DTT before electrophoresis on a 10% Tris-glycine SDS polyacrylamide gel (Invitrogen) in 1× Tris-glycine buffer. The protein was transferred to PVDF (Invitrogen) membrane. Following the transfer, the membrane was rinsed once with TBS containing 0.5% Tween-20 (TBS-Tween) and blocked in TBS-Tween containing 5% non-fat milk for 1 h. After washing with PBS-Tween, the membrane was incubated with the primary WNV antibody (15) at 1:3000 dilutions for 1 h at 25° C. Prior to incubation with HRP conjugated-mouset IgG secondary antibody (Amersham, Life Science, Piscataway, N.J.) diluted 1:5000, the blot was washed in PBS-Tween. Following the secondary antibody incubation, the blot was washed again and treated with Super Signal Chemiluminescent Reagent (Pierce) according to the manufacturer's protocol and exposed to X-ray film. For controls, the blots were stripped and re-probed with an antibody to beta-actin (Chemicon), which was detected with a goat anti-mouse horseradish peroxidase conjugate.
A general note: Immunoblotting shows a protein as a band on a membrane.

Series [8] has as its target T1, luciferase enzyme (Photinus pyralis, UniProt P08659).
T1 construct: expressed in transfected cells; host or cells: BHK 26.5 (BHK cells harbouring the WNV subgenomic replicon with the Luc gene); used as cell lysate
The series can be described thus: in vitro luciferase enzyme assay with cell lysates. The class given is biochemical. Conditions: lysate of WNV replicon cell, 30 minutes incubation, up to 10 μM. As for the experimental part: In two separate experiments, compounds were either tested with 3, 5, 10 μM or only 10 μM concentrations. The luciferase enzyme cell lysates were incubated with the indicated compounds for 30 minutes before luciferase substrate was added and the luminescence was measured. 1% DMSO was used as controls.
Although the initial HTS and the repeat assays have identified a number of compounds capable of reducing the luciferase activity produced in the WNV replicon BHK 26.5 cell line. It is conceivable that some of these inhibitors could have inhibited the luciferase enzyme itself rather than the WNV viral replication. To rule out this possibility, the identified compounds were tested in an in vitro luciferase enzyme assay by incubating the compounds with cell lysates prepared from the WNV replicon cell. […] The inhibition was not observed when the compounds were added immediately before luminescence reading, but after a 30-minute incubation of […] and the cell lysate, indicating a direct inhibition of the luciferase enzyme by the compounds.

T1 sequence (P08659 whole entry): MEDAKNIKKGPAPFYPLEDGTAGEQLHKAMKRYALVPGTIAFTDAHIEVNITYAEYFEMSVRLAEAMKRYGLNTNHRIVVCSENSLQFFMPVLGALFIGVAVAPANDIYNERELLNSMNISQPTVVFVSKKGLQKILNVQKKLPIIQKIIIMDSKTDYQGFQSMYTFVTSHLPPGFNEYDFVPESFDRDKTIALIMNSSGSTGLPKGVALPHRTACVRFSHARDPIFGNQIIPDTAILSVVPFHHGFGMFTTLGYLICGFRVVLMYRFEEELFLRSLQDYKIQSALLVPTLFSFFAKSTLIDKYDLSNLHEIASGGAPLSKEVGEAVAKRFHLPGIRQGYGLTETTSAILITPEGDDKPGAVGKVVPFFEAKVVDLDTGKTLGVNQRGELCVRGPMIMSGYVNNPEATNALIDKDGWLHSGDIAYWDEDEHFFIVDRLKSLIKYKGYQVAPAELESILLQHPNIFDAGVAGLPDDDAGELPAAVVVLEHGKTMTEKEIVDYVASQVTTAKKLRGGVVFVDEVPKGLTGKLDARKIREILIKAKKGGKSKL

One may read the CC50 as the concentration that lowers cell viability or growth by half. Broadly, the IC50 is the concentration that inhibits the measured activity by half. Turning to `Cc1ccc(-c2csc(Nc3ccc(S(=O)(=O)Nc4cc(C)on4)cc3)n2)cc1` [Compound 101-G7, N-(5-Methyl-isoxazol-3-yl)-4-(4-p-tolyl-thiazol-2-ylamino)-benzenesulfonamide], the “Toxicity (uM)*” value in series [1] (MTT assay) was above 10 µM. For the same molecule, the “toxicity in replicon assays” value in series [1] (re-synthesized compound, MTT) is reported as “about 80 μM”. Also, the CC50 in series [2] and in series [3] was above 40 µM throughout. For the same molecule, the IC50 in series [4] (West Nile virus, 24 h) was 5 µM; in series [5] (West Nile virus, BHK, read-out: IC50 in WNV infection assay, re-synthesized, three independent experiments in duplicate), 3 to 15 µM. Further, the “Fold decrease (HTS)” value in series [4] (luciferase activity, 10 μM compound, 24 hours, BHK 26.5 cells) was determined as 6 Fold. In series [4] (luciferase activity, re-checked at a single 10 μM concentration), the “Fold decrease (Re-test)” value was determined as 2 Fold. Also, the “reducing the luciferase activity of the WNV replicon cell” value in series [4] (re-synthesized compound, 24 and 48 hour incubation) was “good activity”. Besides, in series [5] (live WNV), the “activity in the WNV infection assay” value is “retained activity”.

With `COc1c(C)c2c(c(O)c1C/C=C(\C)CCC(=O)O)C(=O)OC2` [MPA, Mycophenolic acid, reference compound], in series [6], the “WNV RNA reduction” value is “more than five fold”. Moreover, the “WNV NS3 protein level (western blot)” value in series [7] was “reduced WNV NS3 protein level”. The “luciferase enzyme activity in cell lysate” value in series [8] was “did not reduce the luciferase activity”.
